In patent US8658206B2, “Compositions comprising strontium and vitamin D and uses thereof” (Mokwalo SA, priority 2004, dated 2014):

Legend:
[1] = relative to cholecalciferol itself; cited from earlier work
[2] = Determination of solubility velocity by ICP-MS in 0.1 M hydrochloride solution; details: 0.1 M HCl, 37° C., 84Sr signal by ICP-MS
Description: Determination of Solubility Velocity by Inductively Coupled Plasma-Mass Spectrometry (ICP-MS)
The solubility is measures as strontium signals over time using ICP-MS. Using this technique it is possible to follow multiple isotopes of the element, here, ^84Sr, ^86Sr, ^87Sr and ^88Sr.
A hydrochloride solution (0.1 M) was added to the sample and the sample then immediately enters, by means of a peristaltic pump, the atomizer of the ICP-MS apparatus. The pump speed was 4.4 ml/min.
The hydrochloride concentration of 0.1 M equals the concentration of HCl in the stomach. The temperature of the HCl solution was 37° C.
The solubility velocity of the compound is obtained by analysing the slopes of the front curves. The first curve represents the experiment and the second curve the apparatus, thus the difference between the slopes of the two curves are used to calculate the solubility velocity by division with the top value.

solubility velocity in hydrochloride [2]	Compound	times more effective in terms of bioavailability than cholecalciferol [1]
–	C=C1/C(=C\C=C2/CCC[C@]3(C)[C@@H]([C@H](C)CCCC(C)(C)O)CC[C@@H]23)C[C@@H](O)C[C@@H]1O [1,25 dihydroxycholecalciferol]	ten
–	C=C1CC[C@H](O)C/C1=C/C=C1\CCC[C@]2(C)[C@@H]([C@H](C)CCCC(C)(C)O)CC[C@@H]12 [25-hydroxycholecalciferol]	five
very high	[Cl-].[Cl-].[Sr+2] [strontium chloride]	–
